Assay results as given in patent US20230157952A1, “METHOD FOR IMPROVING THE STABILITY OF A PHARMACEUTICAL COMPOSITION COMPRISING A HIGH PENETRATION DRUG, AND THE PHARMACEUTICAL COMPOSITION OBTAINED THEREFROM” (Techfields Inc., priority 2020, published 2023).
Non-standard residues stand in square brackets, D forms with d. *: point of attachment. Arg(NO2) = N=C(NCCC[C@H](N)C(=O)O)N[N+](=O)[O-]; OiPr = CC(C)O*

Legend:
[1] = Effect of pH value on the stability of the solution (purity); format: physicochemical; settings: for Purity(%) from day 0-28: 25° C.; for pH at which the solution is stable: 5% solution in 25% ethanol at 25° C.; for Time the solution can be stored at room temperature: 5% solution in 25% ethanol, pH 3-6
[2] = Effect of temperature (and pH) on the stability of the solution (purity); format: physicochemical; settings: for Stability of the solution at a temperature higher than 40° C. and a pH lower than 3 or greater than 6: 7% solution in water; for Purity (%) at day 30 (60° C.) / Purity (%) at day 90 (60° C.) / Purity (%) at day 180 (60° C.) / Purity (%) at day 360 (60° C.) / Purity(%) at day 0 / Purity(%) at day 30 (5° C.) / Purity(%) at day 30 (25° C.) / Purity(%) at day 30 (40° C.) / Purity(%) at day 90 (5° C.) / Purity(%) at day 90 (25° C.) / Purity(%) at day 90 (40° C.) / Purity(%) at day 180 (5° C.) / Purity(%) at day 180 (25° C.) / Purity(%) at day 180 (40° C.) / Purity(%) at day 360 (5° C.) / Purity(%) at day 360 (25° C.) / Purity(%) at day 360 (40° C.): 5% solution with 1 equivalent sodium acetate in 25% ethanol, pH 4.49-4.51
[3] = Stability of the pure HPDs (dry solid) at 25° C./RH 60%; format: physicochemical; settings: for Purity: pure HPD, 25° C./RH 60%; for Purity at 3 month / Purity at 6 month / Purity at 9 month / Purity at 12 month / Purity at 18 month / Purity at 24 month / Purity at Day 0: pure HPD at 25° C./RH 60%; for Stability of the pure powder: room temperature (25° C./RH 60%)
[4] = Effect of concentration on the stability of the solution (purity over time); settings: in water at 25° C.

## CCN(CC)CCOC(=O)[C@H](C)c1ccc2cc(OC)ccc2c1.Cl (racemic) [2-(diethylamino)ethyl (R,S)-2-(6-methoxy-2-naphthyl)propionate•HCl]
[1]; day 28, pH 1.0, 7% solution in water
  Purity(%) from day 0-28: 68.9 ± 0.3%
[1]; day 28, pH 2.0, 7% solution in water
  Purity(%) from day 0-28: 80.9 ± 0.4%
[1]; day 28, pH 3.0, 7% solution in water
  Purity(%) from day 0-28: 90.3 ± 0.3%
[1]; day 28, pH 3.7, 7% solution in water
  Purity(%) from day 0-28: 97.2 ± 0.2%
[1]; day 28, pH 5.0, 7% solution in water
  Purity(%) from day 0-28: 96.3 ± 0.2%
[1]; day 28, pH 6.0, 7% solution in water
  Purity(%) from day 0-28: 89.9 ± 0.3%
[1]; day 28, pH 7.0, 7% solution in water
  Purity(%) from day 0-28: 65.8 ± 0.3%
[1]; day 28, pH 8.0, 7% solution in water
  Purity(%) from day 0-28: 45.8 ± 0.4%
[2]
  Stability of the solution at a temperature higher than 40° C. and a pH lower than 3 or greater than 6: not stable
[3]; 3 month, listed as A-1-1
  Purity: 98.6 ± 0.1
[3]; 6 month, listed as A-1-1
  Purity: 98.8 ± 0.1
[3]; Day 0, listed as A-1-1
  Purity: 98.8 ± 0.2
[4]; 0.01 wt %
  Purity at Day 3: 79.6%
  Purity at Day 7: 73.4%
  Purity at Day 14: 68.7%
  Purity at Day 21: 64.5%
  Purity at Day 28: 61.4%
  Purity at hr 24: 91.7%
[4]; 0.1 wt %
  Purity at Day 7: 97.2%
  Purity at Day 14: 96.1%
  Purity at Day 21: 95.4%
  Purity at Day 28: 94.1%
[4]; 1 wt %
  Purity at Day 14: 97.4%
  Purity at Day 21: 96.9%
  Purity at Day 28: 96.4%
[4]; 3 wt %
  Purity at Day 21: 97.6%
  Purity at Day 28: 97.1%
[4]; 5 wt %
  Purity at Day 28: 97.5%
[4]; 8 wt %
  Purity at Day 21: 97.5%
  Purity at Day 28: 97.6%
[4]; 10 wt %
  Purity at Day 21: 97.4%
  Purity at Day 28: 97.6%
[4]; 15 wt %
  Purity at Day 21: 97.5%
  Purity at Day 28: 97.6%
[4]; 20 wt %
  Purity at Day 21: 97.4%
  Purity at Day 28: 97.6%
[4]
  Stability when the concentration is 0.1% or lower: not stable

## CCN(CC)CCOC(=O)C(C)c1ccc(CC(C)C)cc1.Cl (racemic) [C-4, 2-(diethylamino)ethyl (R,S)-2-(p-isobutylphenyl)propionate•HCl salt]
[1]; day 28, pH 1.0, 7% in 25% ethanol
  Purity(%) from day 0-28: 69.1 ± 0.2%
[1]; day 28, pH 2.0, 7% in 25% ethanol
  Purity(%) from day 0-28: 80.8 ± 0.4%
[1]; day 28, pH 3.0, 7% in 25% ethanol
  Purity(%) from day 0-28: 92.5 ± 0.3%
[1]; day 28, pH 3.7, 7% in 25% ethanol
  Purity(%) from day 0-28: 97.2 ± 0.4%
[1]; day 28, pH 4.6, 7% in 25% ethanol
  Purity(%) from day 0-28: 97.3 ± 0.3%
[1]; day 28, pH 5.0, 7% in 25% ethanol
  Purity(%) from day 0-28: 94.3 ± 0.2%
[1]; day 28, pH 6.0, 7% in 25% ethanol
  Purity(%) from day 0-28: 89.9 ± 0.3%
[1]; day 28, pH 7.0, 7% in 25% ethanol
  Purity(%) from day 0-28: 52.8 ± 0.4%
[1]; day 28, pH 8.0, 7% in 25% ethanol
  Purity(%) from day 0-28: 35.3 ± 0.3%
[2]
  Stability of the solution at a temperature higher than 40° C. and a pH lower than 3 or greater than 6: not stable
[3]; 3 month, listed as C-1-1
  Purity: 99.9 ± 0.2
[3]; 6 month, listed as C-1-1
  Purity: 99.8 ± 0.2
[3]; 9 month, listed as C-1-1
  Purity: 99.8 ± 0.3
[3]; 12 month
  Purity: 98.1 ± 0.3
[3]; 12 month, listed as C-1-1
  Purity: 99.5 ± 0.3
[3]; 18 month
  Purity: 98.0 ± 0.1
[3]; 18 month, listed as C-1-1
  Purity: 99.8 ± 0.3
[3]; 24 month
  Purity: 97.9 ± 0.3
[3]; 24 month, listed as C-1-1
  Purity: 99.7 ± 0.4
[3]; Day 0, listed as C-1-1
  Purity: 99.8 ± 0.1

## H-Val-Pro-Asp[OCH(CH3)2]-Pro-Arg(NO2)—OCH(CH3)2•HCl [T-3]
[1]
  pH at which the solution is stable: 3-6
  Time the solution can be stored at room temperature: about 1 year
[2]
  Purity (%) at day 30 (60° C.): 33.2 ± 0.3%
  Purity (%) at day 90 (60° C.): 0%
  Purity (%) at day 180 (60° C.): 0%
  Purity (%) at day 360 (60° C.): 0%
  Purity(%) at day 0: 99.1 ± 0.1%
  Purity(%) at day 30 (5° C.): 98.9 ± 0.2%
  Purity(%) at day 30 (25° C.): 97.9 ± 0.3%
  Purity(%) at day 30 (40° C.): 71.9 ± 0.2%
  Purity(%) at day 90 (5° C.): 98.6 ± 0.3%
  Purity(%) at day 90 (25° C.): 97.2 ± 0.3%
  Purity(%) at day 90 (40° C.): 34.2 ± 0.3%
  Purity(%) at day 180 (5° C.): 97.9 ± 0.2%
  Purity(%) at day 180 (25° C.): 95.2 ± 0.3%
  Purity(%) at day 180 (40° C.): 13.5 ± 0.3%
  Purity(%) at day 360 (5° C.): 97.4 ± 0.3%
  Purity(%) at day 360 (25° C.): 92.5 ± 0.4%
  Purity(%) at day 360 (40° C.): 0%
[3]
  Purity at 3 month: 99.0 ± 0.2
  Purity at 6 month: 99.0 ± 0.2
  Purity at 9 month: 98.8 ± 0.2
  Purity at 12 month: 98.7 ± 0.0
  Purity at 18 month: 98.6 ± 0.0
  Purity at 24 month: 98.5 ± 0.2
  Purity at Day 0: 99.1 ± 0.2
  Stability of the pure powder: very stable

## H-Val-Pro-Gly-Pro-Arg(NO2)—OCH(CH3)2•HCl (H-VPGP[Arg(NO2)]-OiPr; also: HCl salt)
[1]
  pH at which the solution is stable: 3-6
  Time the solution can be stored at room temperature: about 1 year
[2]
  Purity (%) at day 30 (60° C.): 32.4 ± 0.4%
  Purity (%) at day 90 (60° C.): 0%
  Purity (%) at day 180 (60° C.): 0%
  Purity (%) at day 360 (60° C.): 0%
  Purity(%) at day 0: 98.7 ± 0.2%
  Purity(%) at day 30 (5° C.): 98.5 ± 0.3%
  Purity(%) at day 30 (25° C.): 97.7 ± 0.2%
  Purity(%) at day 30 (40° C.): 71.6 ± 0.2%
  Purity(%) at day 90 (5° C.): 98.4 ± 0.3%
  Purity(%) at day 90 (25° C.): 97.0 ± 0.3%
  Purity(%) at day 90 (40° C.): 32.7 ± 0.3%
  Purity(%) at day 180 (5° C.): 97.8 ± 0.3%
  Purity(%) at day 180 (25° C.): 95.1 ± 0.3%
  Purity(%) at day 180 (40° C.): 12.2 ± 0.3%
  Purity(%) at day 360 (5° C.): 97.3 ± 0.3%
  Purity(%) at day 360 (25° C.): 92.2 ± 0.2%
  Purity(%) at day 360 (40° C.): 0%
[3]; in % (unit assumed)
  Purity at 3 month: 98.8 ± 0.2
  Purity at 6 month: 98.6 ± 0.2
  Purity at 9 month: 98.5 ± 0.2
  Purity at 12 month: 98.4 ± 0.3
  Purity at 18 month: 98.2 ± 0.3
  Purity at 24 month: 98.2 ± 0.2
  Purity at Day 0: 98.7 ± 0.2
[3]
  Stability of the pure powder: very stable
